What was measured:
[1] = molecular target: baculovirus-expressed ALK (Homo sapiens, UniProt Q9UM73); assay: ALK kinase inhibition, TRF/ELISA; type: biochemical; details: read-out: ALK Potency
Procedure, shortened: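 Eu-PT66 anti-phosphotyrosine TRF read-out measured phosphorylation of plate-bound GST-PLC-γ (coated at 10 μg/mL). The phosphorylation was driven by 30 ng/mL ALK for 15 minutes at 37° C.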

[2] = molecular target: baculovirus-expressed JAK2 kinase (Homo sapiens, UniProt O60674); assay: biochemical; details: 0.2 μM ATP; read-out: JAK2 Potency
baculovirus-expressed JAK2 kinase, sequence (O60674 whole entry): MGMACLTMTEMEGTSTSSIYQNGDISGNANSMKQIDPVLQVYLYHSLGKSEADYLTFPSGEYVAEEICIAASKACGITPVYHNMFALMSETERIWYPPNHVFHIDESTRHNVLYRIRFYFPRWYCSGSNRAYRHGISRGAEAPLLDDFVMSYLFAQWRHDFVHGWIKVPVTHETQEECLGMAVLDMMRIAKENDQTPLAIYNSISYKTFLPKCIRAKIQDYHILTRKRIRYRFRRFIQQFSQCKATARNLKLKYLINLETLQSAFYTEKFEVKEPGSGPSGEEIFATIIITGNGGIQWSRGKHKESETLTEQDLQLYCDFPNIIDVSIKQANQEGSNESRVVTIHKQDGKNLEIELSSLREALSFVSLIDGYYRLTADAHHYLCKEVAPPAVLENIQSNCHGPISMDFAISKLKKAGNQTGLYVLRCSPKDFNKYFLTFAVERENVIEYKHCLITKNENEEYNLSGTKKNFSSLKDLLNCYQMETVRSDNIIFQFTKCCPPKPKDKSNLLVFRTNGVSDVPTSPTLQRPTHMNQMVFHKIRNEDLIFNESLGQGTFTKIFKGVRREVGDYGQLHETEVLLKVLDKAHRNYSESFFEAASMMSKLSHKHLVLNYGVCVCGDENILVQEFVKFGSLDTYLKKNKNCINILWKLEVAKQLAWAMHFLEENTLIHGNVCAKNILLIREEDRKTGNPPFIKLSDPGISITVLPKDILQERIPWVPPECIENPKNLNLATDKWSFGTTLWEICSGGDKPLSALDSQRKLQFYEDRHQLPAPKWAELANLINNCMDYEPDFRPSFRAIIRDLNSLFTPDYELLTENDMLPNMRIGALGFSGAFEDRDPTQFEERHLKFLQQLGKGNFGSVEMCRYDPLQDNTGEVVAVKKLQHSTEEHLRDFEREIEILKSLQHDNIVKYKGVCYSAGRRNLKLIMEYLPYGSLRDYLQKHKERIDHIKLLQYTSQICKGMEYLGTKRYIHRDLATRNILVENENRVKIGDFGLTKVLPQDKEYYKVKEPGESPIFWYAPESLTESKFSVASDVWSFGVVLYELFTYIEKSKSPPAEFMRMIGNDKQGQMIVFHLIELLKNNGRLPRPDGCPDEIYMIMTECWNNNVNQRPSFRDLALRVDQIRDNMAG
Procedure, shortened: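 IC50 derived by variable-slope sigmoidal fit of percent inhibition against log compound concentration. Baculovirus-expressed JAK2 (15 ng/mL) phosphorylated a plate-bound biotinylated 15-mer peptide for 20 min at room temperature; detection by time-resolved fluorescence.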

baculovirus-expressed ALK, sequence (Q9UM73 19-1620): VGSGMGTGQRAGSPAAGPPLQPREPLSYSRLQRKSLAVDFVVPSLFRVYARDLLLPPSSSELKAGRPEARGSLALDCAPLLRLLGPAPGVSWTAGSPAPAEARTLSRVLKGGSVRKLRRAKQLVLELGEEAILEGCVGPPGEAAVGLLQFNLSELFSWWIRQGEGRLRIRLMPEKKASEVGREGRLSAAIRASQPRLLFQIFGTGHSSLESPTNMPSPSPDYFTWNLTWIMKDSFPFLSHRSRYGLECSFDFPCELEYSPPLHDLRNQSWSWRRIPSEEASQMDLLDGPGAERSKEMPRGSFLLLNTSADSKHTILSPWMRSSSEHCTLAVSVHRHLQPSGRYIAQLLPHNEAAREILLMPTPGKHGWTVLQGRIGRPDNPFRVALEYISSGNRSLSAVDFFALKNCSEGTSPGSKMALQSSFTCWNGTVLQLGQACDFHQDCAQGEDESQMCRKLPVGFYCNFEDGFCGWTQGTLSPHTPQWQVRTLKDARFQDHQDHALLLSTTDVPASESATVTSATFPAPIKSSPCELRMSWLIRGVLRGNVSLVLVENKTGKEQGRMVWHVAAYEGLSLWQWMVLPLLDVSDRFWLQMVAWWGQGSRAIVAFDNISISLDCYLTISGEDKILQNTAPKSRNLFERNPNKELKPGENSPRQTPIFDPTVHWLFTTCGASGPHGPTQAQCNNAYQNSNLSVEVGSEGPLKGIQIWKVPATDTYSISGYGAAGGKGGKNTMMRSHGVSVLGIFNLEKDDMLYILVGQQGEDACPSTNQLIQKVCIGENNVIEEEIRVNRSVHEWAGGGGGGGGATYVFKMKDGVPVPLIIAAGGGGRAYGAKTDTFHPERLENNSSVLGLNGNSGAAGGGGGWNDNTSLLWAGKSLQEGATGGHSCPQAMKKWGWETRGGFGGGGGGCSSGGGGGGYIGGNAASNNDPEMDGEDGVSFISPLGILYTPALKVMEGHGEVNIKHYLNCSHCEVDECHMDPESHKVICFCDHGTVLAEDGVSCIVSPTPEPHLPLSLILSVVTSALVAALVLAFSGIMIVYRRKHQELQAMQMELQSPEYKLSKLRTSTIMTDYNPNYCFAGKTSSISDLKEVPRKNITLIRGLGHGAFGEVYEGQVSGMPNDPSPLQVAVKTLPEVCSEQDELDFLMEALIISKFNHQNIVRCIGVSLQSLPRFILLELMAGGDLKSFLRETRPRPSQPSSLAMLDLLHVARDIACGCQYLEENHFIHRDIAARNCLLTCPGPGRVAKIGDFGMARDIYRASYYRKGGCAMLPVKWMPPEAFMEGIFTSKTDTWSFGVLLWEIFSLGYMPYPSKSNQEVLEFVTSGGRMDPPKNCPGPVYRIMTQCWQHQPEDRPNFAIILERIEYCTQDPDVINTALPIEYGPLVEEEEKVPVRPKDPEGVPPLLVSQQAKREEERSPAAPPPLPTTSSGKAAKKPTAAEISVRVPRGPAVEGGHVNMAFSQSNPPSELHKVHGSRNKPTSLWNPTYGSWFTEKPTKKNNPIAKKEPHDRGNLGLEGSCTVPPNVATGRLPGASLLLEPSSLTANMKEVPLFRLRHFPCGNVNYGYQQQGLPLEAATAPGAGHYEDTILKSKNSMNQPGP

## COc1cccc(-c2nc3c(N[C@H]4[C@@H](C(N)=O)[C@@H]5C=C[C@H]4C5)c(Cl)cnc3[nH]2)n1 [Compound CXXIV, (1S,2S,3R,4R)-3-[6-Chloro-2-(6-methoxy-pyridin-2-yl)-3H-imidazo[4,5-b]pyridin-7-ylamino]-bicyclo[2.2.1]hept-5-ene-2-carboxylic acid amide]
[1]
  IC50: < 100 nM
[2]
  IC50: < 100 nM

## COc1cc(CN2CC[C@@H](O)C2)ccc1-c1nc2c(N[C@@H]3CCCC[C@H]3NS(C)(=O)=O)c(Cl)cnc2[nH]1 [Compound LXXV, N-((1R,2R)-2-{6-Chloro-2-[4-((R)-3-hydroxy-pyrrolidin-1-ylmethyl)-2-methoxy-phenyl]-3H-imidazo[4,5-b]pyridine-7-ylamino}-cyclohexyl)-methanesulfonamide]
[1]
  IC50: < 100 nM
[2]
  IC50: 1000 to 10000 nM

## Cc1ncc(-c2nc3c(N[C@H]4[C@@H](C(N)=O)[C@@H]5C=C[C@H]4C5)c(Cl)cnc3[nH]2)s1 [Compound CCVIII, (1S,2S,3R,4R)-3-(6-chloro-2-(2-methylthiazol-5-yl)-3H-imidazo[4,5-b]pyridin-7-ylamino)bicyclo[2.2.1]hept-5-ene-2-carboxamide]
[1]
  IC50: 100 to 1000 nM
[2]
  IC50: < 100 nM

## NC(=O)[C@@H]1[C@H](Nc2c(Br)cnc3[nH]c(-c4ccc(N5CCOCC5)cc4Cl)nc23)[C@H]2C=C[C@@H]1C2 [Compound CXXXIV, (1S,2S,3R,4R)-3-[6-Bromo-2-(2-chloro-4-morpholin-4-yl-phenyl)-3H-imidazo[4,5-b]pyridin-7-ylamino]-bicyclo[2.2.1]hept-5-ene-2-carboxylic acid amide]
[1]
  IC50: < 100 nM
[2]
  IC50: < 100 nM

## CN1CCN(Cc2ccc(-c3nc4c(N[C@@H]5CCCC[C@H]5NS(C)(=O)=O)c(Cl)cnc4[nH]3)cc2)CC1 [CCLIV, N-((1R,2R)-2-{6-Chloro-2-[4-(4-methyl-piperazin-1-ylmethyl)-phenyl]-3H-imidazo[4,5-b]pyridin-7-ylamino}-cyclohexyl)-methanesulfonamide]
[1]
  IC50: < 100 nM
[2]
  IC50: < 100 nM

## Cc1nc(C2CCNCC2)sc1-c1nc2c(N[C@H]3[C@@H](C(N)=O)[C@@H]4C=C[C@H]3C4)c(Cl)cnc2[nH]1 [Compound LXIV, (1S,2S,3R,4R)-3-[6-Chloro-2-(4-methyl-2-piperidin-4-yl-thiazol-5-yl)-3H-imidazo[4,5-b]pyridine-7-ylamino]-bicyclo[2.2.1]hept-5-ene-2-carboxylic acid amide]
[1]
  IC50: < 100 nM
[2]
  IC50: < 100 nM

## NC(=O)[C@@H]1[C@H](Nc2c(Cl)cnc3[nH]c(-c4cccc(F)c4)nc23)[C@H]2C=C[C@@H]1C2 [Compound CXXVIII]
[1]
  IC50: 100 to 1000 nM
[2]
  IC50: < 100 nM

## Cc1nn(C)c(C)c1-c1nc2c(N[C@H]3[C@@H](C(N)=O)[C@@H]4C=C[C@H]3C4)c(Cl)cnc2[nH]1 [Compound CLI, (1S,2S,3R,4R)-3-[6-Chloro-2-(1,3,5-trimethyl-1H-pyrazol-4-yl)-3H-imidazo[4,5-b]pyridin-7-ylamino]-bicyclo[2.2.1]hept-5-ene-2-carboxylic acid amide]
[1]
  IC50: < 100 nM
[2]
  IC50: < 100 nM

## NC(=O)[C@@H]1[C@H](Nc2c(Cl)cnc3[nH]c(-c4cccc(OCC(=O)O)c4)nc23)[C@H]2C=C[C@@H]1C2 [Compound CCLXIII, 2-(3-(7-((1R,2R,3S,4S)-3-carbamoylbicyclo[2.2.1]hept-5-en-2-ylamino)-6-chloro-3H-imidazo[4,5-b]pyridin-2-yl)phenoxy)acetic acid]
[1]
  IC50: 100 to 1000 nM
[2]
  IC50: < 100 nM

## NC(=O)[C@@H]1[C@H](Nc2c(Cl)cnc3[nH]c(-c4cccc(C(=O)O)c4)nc23)[C@H]2C=C[C@@H]1C2 [Compound CCXVII, 3-(7-((1R,2R,3S,4S)-3-carbamoylbicyclo[2.2.1]hept-5-en-2-ylamino)-6-chloro-3H-imidazo[4,5-b]pyridin-2-yl)benzoic acid]
[1]
  IC50: 1000 to 10000 nM
[2]
  IC50: < 100 nM

## NC(=O)[C@@H]1[C@H](Nc2c(Br)cnc3[nH]c(-c4cccc(F)c4)nc23)[C@H]2C=C[C@@H]1C2 [Compound CXXXII, (1S,2S,3R,4R)-3-[6-Bromo-2-(3-fluoro-phenyl)-3H-imidazo[4,5-b]pyridin-7-ylamino]-bicyclo[2.2.1]hept-5-ene-2-carboxylic acid amide]
[1]
  IC50: 100 to 1000 nM
[2]
  IC50: < 100 nM

## NC(=O)[C@@H]1[C@H](Nc2c(Cl)cnc3[nH]c(-c4cccnc4N4CCOCC4)nc23)[C@H]2C=C[C@@H]1C2 [Compound XXXIV, (1S,2S,3R,4R)-3-[6-Chloro-2-(2-morpholin-4-yl-pyridin-3-yl)-3H-imidazo[4,5-b]pyridine-7-ylamino]-bicyclo[2.2.1]hept-5-ene-2-carboxylic acid amide]
[1]
  IC50: 1000 to 10000 nM
[2]
  IC50: > 10000 nM

## COc1ccc(-c2nc3c(N[C@H]4[C@@H](C(N)=O)[C@@H]5C=C[C@H]4C5)c(Cl)cnc3[nH]2)c(C2CCN(C[C@H](C)O)CC2)c1 [Compound XXXII, (1S,2S,3R,4R)-3-(6-Chloro-2-{2-[1-((S)-2-hydroxypropyl)-piperidin-4-yl]-4-methoxy-phenyl}-3H-imidazo[4,5-b]pyridin-7-ylamino)-bicyclo[2.2.1]hept-5-ene-2-carboxylic acid amide]
[1]
  IC50: 1000 to 10000 nM
[2]
  IC50: 1000 to 10000 nM

## N#Cc1cccc(-c2nc3c(N[C@H]4[C@@H](C(N)=O)[C@@H]5C=C[C@H]4C5)c(Cl)cnc3[nH]2)c1 [Compound CXLIV, (1S,2S,3R,4R)-3-[6-Chloro-2-(3-cyano-phenyl)-3H-imidazo[4,5-b]pyridin-7-ylamino]-bicyclo[2.2.1]hept-5-ene-2-carboxylic acid amide]
[1]
  IC50: 100 to 1000 nM
[2]
  IC50: < 100 nM

## NC(=O)[C@@H]1[C@H](Nc2c(Br)cnc3[nH]c(-c4ccccc4Cl)nc23)[C@H]2C=C[C@@H]1C2 [Compound CXLIX, (1S,2S,3R,4R)-3-[6-Bromo-2-(2-chloro-phenyl)-3H-imidazo[4,5-b]pyridin-7-ylamino]-bicyclo[2.2.1]hept-5-ene-2-carboxylic acid amide]
[1]
  IC50: 100 to 1000 nM
[2]
  IC50: < 100 nM

## CNC(=O)[C@@H]1[C@H](Nc2c(Cl)cnc3[nH]c(-c4ccc(N5CCOCC5)cc4)nc23)[C@H]2C=C[C@@H]1C2 [Compound CLXXVIII, (1S,2S,3R,4R)-3-(6-chloro-2-(4-morpholinophenyl)-3H-imidazo[4,5-b]pyridin-7-ylamino)-N-methylbicyclo[2.2.1]hept-5-ene-2-carboxamide]
[1]
  IC50: < 100 nM
[2]
  IC50: < 100 nM

## NC(=O)[C@@H]1[C@H](Nc2c(Br)cnc3[nH]c(-c4ccc(C(F)(F)F)nc4)nc23)[C@H]2C=C[C@@H]1C2 [Compound CXXXIX, (1S,2S,3R,4R)-3-[6-Bromo-2-(6-trifluoromethyl-pyridin-3-yl)-3H-imidazo[4,5-b]pyridin-7-ylamino]-bicyclo[2.2.1]hept-5-ene-2-carboxylic acid amide]
[1]
  IC50: 1000 to 10000 nM
[2]
  IC50: < 100 nM

## NC(=O)[C@@H]1[C@H](Nc2c(Cl)cnc3[nH]c(-c4cccc(C(=O)N5CCNCC5)c4)nc23)[C@H]2C=C[C@@H]1C2 [Compound CCXIX, (1S,2S,3R,4R)-3-(6-chloro-2-(3-(piperazine-1-carbonyl)phenyl)-3H-imidazo[4,5-b]pyridin-7-ylamino)bicyclo[2.2.1]hept-5-ene-2-carboxamide]
[1]
  IC50: < 100 nM
[2]
  IC50: < 100 nM

## COc1cc(N2CCOCC2)ccc1-c1nc2c(NC34CCC(C)(C(=O)C3)C4(C)C)c(Cl)cnc2[nH]1 (centres unmarked) [Compound CC, 4-(6-chloro-2-(2-methoxy-4-morpholinophenyl)-3H-imidazo[4,5-b]pyridin-7-ylamino)-1,7,7-trimethylbicyclo[2.2.1]heptan-2-one]
[1]
  IC50: 100 to 1000 nM
[2]
  IC50: 100 to 1000 nM

Source: patent US9238656B2, “Imidazo[4,5-b]pyridine derivatives as ALK and JAK modulators for the treatment of proliferative disorders” (priority 2012, dated 2016)
